Results on 20 compounds are retold here after ChEMBL document CHEMBL1909046, “DrugMatrix in vitro pharmacology data”.

Assay [1] in a line: DRUGMATRIX: beta-Lactamase enzyme inhibition (substrate: Nitrocefin). Also noted: species or system Bacillus cereus. To be noted: Not Active = under 50% inhibition at 10 µM.
The next assay addresses Substance-P receptor (Homo sapiens, UniProt P25103). The format is cell membranes, CHO, Membrane. To be noted: cho.
Assay [2] has as its target T1, Muscarinic acetylcholine receptor M2 (Homo sapiens, UniProt P08172). Further: in other assays of this panel Not Active means under 50% inhibition at 10 µM.
T1 sequence (P08172 whole entry): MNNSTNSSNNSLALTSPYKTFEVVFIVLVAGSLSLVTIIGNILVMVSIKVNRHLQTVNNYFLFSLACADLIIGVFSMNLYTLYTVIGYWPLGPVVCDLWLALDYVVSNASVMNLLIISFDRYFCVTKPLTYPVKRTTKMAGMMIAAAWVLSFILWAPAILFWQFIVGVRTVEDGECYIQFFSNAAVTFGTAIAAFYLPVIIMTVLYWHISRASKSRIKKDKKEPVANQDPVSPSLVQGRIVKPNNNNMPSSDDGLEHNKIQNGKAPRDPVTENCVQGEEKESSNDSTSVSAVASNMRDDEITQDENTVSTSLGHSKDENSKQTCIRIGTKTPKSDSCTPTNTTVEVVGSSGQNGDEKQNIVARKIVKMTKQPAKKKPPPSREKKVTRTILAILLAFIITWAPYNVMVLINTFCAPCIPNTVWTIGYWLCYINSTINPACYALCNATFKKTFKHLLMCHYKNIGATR
The format is cell membranes, CHO-K1, Membrane. To be noted: for Ki: read-out: Ki.

In assay [3] the target is T2, Muscarinic acetylcholine receptor M4 (Homo sapiens, UniProt P08173). Further: in other assays of this panel Not Active means under 50% inhibition at 10 µM.
T2 sequence (P08173 whole entry): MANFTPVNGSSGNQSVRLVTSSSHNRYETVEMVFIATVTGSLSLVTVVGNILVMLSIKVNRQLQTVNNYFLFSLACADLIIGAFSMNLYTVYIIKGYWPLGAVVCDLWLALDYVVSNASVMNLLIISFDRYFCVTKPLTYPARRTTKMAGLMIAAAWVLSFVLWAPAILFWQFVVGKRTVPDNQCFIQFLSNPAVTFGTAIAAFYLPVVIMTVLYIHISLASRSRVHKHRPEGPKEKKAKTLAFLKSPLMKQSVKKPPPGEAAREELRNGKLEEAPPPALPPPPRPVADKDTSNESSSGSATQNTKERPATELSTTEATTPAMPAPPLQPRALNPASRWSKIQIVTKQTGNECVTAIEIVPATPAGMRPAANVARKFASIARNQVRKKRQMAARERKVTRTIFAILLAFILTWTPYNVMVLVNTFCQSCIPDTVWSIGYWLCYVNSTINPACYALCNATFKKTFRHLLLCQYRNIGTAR
The format is cell membranes, CHO-K1, Membrane. To be noted: for Ki: read-out: Ki.

For assay [4], the target named is 5-hydroxytryptamine receptor 1B (Rattus norvegicus, UniProt P28564). It counts as cell membranes, Wistar, Cerebral cortex, Membrane. Further: in other assays of this panel Not Active means under 50% inhibition at 10 µM.
A further assay addresses T3, Adenosine receptor A3 (Homo sapiens, UniProt P0DMS8).
T3 sequence (P0DMS8 whole entry): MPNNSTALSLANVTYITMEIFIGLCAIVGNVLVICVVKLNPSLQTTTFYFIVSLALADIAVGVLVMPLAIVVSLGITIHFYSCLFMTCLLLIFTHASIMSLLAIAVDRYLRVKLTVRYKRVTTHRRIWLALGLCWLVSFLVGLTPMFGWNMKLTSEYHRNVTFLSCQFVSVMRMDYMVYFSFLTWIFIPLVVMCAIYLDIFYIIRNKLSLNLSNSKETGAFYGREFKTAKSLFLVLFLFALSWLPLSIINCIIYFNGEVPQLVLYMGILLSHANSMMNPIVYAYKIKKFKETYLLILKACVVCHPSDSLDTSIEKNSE
It counts as cell membranes, CHO-K1, Membrane. The note with it: cho-k1.

Substance-P receptor, sequence (P25103 whole entry): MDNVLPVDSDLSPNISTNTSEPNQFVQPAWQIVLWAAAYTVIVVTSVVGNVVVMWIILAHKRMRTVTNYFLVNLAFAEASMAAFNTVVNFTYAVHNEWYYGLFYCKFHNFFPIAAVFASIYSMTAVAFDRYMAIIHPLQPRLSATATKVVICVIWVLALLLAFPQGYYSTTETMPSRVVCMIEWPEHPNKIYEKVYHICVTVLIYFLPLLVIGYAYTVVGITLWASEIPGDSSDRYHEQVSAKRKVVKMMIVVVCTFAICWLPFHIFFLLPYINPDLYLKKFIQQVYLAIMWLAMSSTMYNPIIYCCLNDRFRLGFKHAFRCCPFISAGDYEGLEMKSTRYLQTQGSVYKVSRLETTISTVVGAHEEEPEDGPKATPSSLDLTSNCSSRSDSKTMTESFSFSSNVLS
5-hydroxytryptamine receptor 1B, sequence (P28564 whole entry): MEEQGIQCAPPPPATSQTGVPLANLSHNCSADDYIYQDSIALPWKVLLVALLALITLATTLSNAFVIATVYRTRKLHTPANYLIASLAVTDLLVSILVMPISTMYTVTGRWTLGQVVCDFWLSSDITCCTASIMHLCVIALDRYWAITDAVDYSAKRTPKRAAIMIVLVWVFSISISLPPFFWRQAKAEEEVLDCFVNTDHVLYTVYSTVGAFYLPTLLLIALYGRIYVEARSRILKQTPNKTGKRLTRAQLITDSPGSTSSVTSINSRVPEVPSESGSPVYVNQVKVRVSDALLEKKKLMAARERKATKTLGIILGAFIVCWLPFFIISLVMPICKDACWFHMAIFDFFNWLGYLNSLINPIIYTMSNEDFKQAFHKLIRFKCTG

With `CC(=O)OCC(=O)[C@@]1(O)CC[C@H]2[C@@H]3CCC4=CC(=O)CC[C@]4(C)[C@@]3(F)[C@@H](O)C[C@@]21C` [FLUDROCORTISONE ACETATE], the IC50 entry (in assay [1]; at Substance-P receptor; in assay [2] (cho-k1); in assay [3] (cho-k1); in assay [4]; against Adenosine receptor A3) was “Not Active” each time. Moreover, in assay [1], the Ki entry is on record as “Not Active”.
On to `CCOC(=O)c1ncn2c1CN(C)C(=O)c1cc(F)ccc1-2` [FLUMAZENIL], for which the IC50 entry (in assay [1]; on Substance-P receptor; in assay [2] (cho-k1); in assay [3] (cho-k1); in assay [4]; against Adenosine receptor A3) was “Not Active” each time. The inhibitory constant (Ki) entry in assay [1] is “Not Active”.
With `CC(=O)OCC(=O)[C@@]12OC(C)(C)O[C@@H]1C[C@H]1[C@@H]3C[C@H](F)C4=CC(=O)C=C[C@]4(C)[C@@]3(F)[C@@H](O)C[C@@]12C` [FLUOCINONIDE], the IC50 entry (in assay [1]; on Substance-P receptor; in assay [2] (cho-k1); in assay [3] (cho-k1); in assay [4]; against Adenosine receptor A3) was “Not Active” in each case. In addition, the Ki entry in assay [1] was “Not Active”.
With `O=C(O)P(=O)(O)O` [FOSCARNET], the 50% inhibitory concentration (IC50) entry (in assay [1]; against Substance-P receptor; in assay [2] (cho-k1); in assay [3] (cho-k1); in assay [4]; at Adenosine receptor A3) was “Not Active” each time. The Ki entry in assay [1] is reported as “Not Active”.
As to `Cc1ccc(C)c(OCCCC(C)(C)C(=O)O)c1` [GEMFIBROZIL], the IC50 entry (in assay [1]; at Substance-P receptor; in assay [2] (cho-k1); in assay [3] (cho-k1); in assay [4]; at Adenosine receptor A3) was “Not Active” in each case. For the same compound, the Ki entry in assay [1] is “Not Active”.
Regarding `O=c1c(-c2ccc(O)cc2)coc2cc(O)cc(O)c12` [GENISTEIN], the IC50 entry (in assay [1]; against Substance-P receptor; in assay [2] (cho-k1); in assay [3] (cho-k1); in assay [4]; on Adenosine receptor A3) was “Not Active” each time. Besides, the Ki entry in assay [1] was “Not Active”.
On to `CCC1=C(C)CN(C(=O)NCCc2ccc(S(=O)(=O)NC(=O)N[C@H]3CC[C@H](C)CC3)cc2)C1=O` [GLIMEPIRIDE], for which the IC50 result (in assay [1]; at Substance-P receptor; in assay [2] (cho-k1); in assay [3] (cho-k1); in assay [4]; on Adenosine receptor A3) was “Not Active” in each case. Moreover, the Ki entry in assay [1] is reported as “Not Active”.
For `Nc1cc(-c2ccncc2)c[nH]c1=O` [INAMRINONE], the IC50 entry (in assay [1]; against Substance-P receptor; in assay [2] (cho-k1); in assay [3] (cho-k1); in assay [4]; against Adenosine receptor A3) was “Not Active” in each case. The Ki entry in assay [1] was “Not Active”.
In the case of `CCCCC1=NC2(CCCC2)C(=O)N1Cc1ccc(-c2ccccc2-c2nnn[nH]2)cc1` [IRBESARTAN], the IC50 result (in assay [1]; at Substance-P receptor; in assay [2] (cho-k1); in assay [3] (cho-k1); in assay [4]; at Adenosine receptor A3) was “Not Active” each time. In addition, the Ki entry in assay [1] is “Not Active”.
For the compound `CN1CCC(=C2c3ccccc3CC(=O)c3sccc32)CC1` [KETOTIFEN], the IC50 result in assay [1] is “Not Active”; on Substance-P receptor, “Not Active”; in assay [2] (read-out: IC50), 838 nM; in assay [3] (read-out: IC50), 1010 nM; in assay [4] it was “Not Active”; against Adenosine receptor A3 it was “Not Active”. Besides, the Ki entry in assay [1] was “Not Active”; in assay [2], 298 nM; in assay [3], 141 nM.
As for `N[C@@H](Cn1ccc(=O)c(O)c1)C(=O)O` [L-MIMOSINE], the IC50 entry (in assay [1]; on Substance-P receptor; in assay [2] (cho-k1); in assay [3] (cho-k1); in assay [4]; at Adenosine receptor A3) was “Not Active” in each case. Besides, the Ki entry in assay [1] was “Not Active”.
For the compound `C[N+](C)(C)C[C@H](O)CC(=O)[O-]` [LEVOCARNITINE], the IC50 result (in assay [1]; against Substance-P receptor; in assay [2] (cho-k1); in assay [3] (cho-k1); in assay [4]; at Adenosine receptor A3) was “Not Active” each time. The Ki entry in assay [1] is reported as “Not Active”.
As for `C[C@H]1COc2c(N3CCN(C)CC3)c(F)cc3c(=O)c(C(=O)O)cn1c23.C[C@H]1COc2c(N3CCN(C)CC3)c(F)cc3c(=O)c(C(=O)O)cn1c23.O` [LEVOFLOXACIN], the IC50 entry (in assay [1]; at Substance-P receptor; in assay [2] (cho-k1); in assay [3] (cho-k1); in assay [4]; on Adenosine receptor A3) was “Not Active” each time. In assay [1], the Ki result is “Not Active”.
Consider `CCn1cc(C(=O)O)c(=O)c2cc(F)c(N3CCNC(C)C3)c(F)c21` (centres undefined) [LOMEFLOXACIN], for which the IC50 result (in assay [1]; against Substance-P receptor; in assay [2] (cho-k1); in assay [3] (cho-k1); in assay [4]; on Adenosine receptor A3) was “Not Active” in each case. Moreover, in assay [1], the Ki result is on record as “Not Active”.
For the compound `CN1CCCC(CN2c3ccccc3Sc3ccccc32)C1` (centres undefined) [MEPAZINE], the half-inhibitory concentration (IC50) result in assay [1] is “Not Active”; on Substance-P receptor, “Not Active”; in assay [2] (read-out: IC50), 565 nM; in assay [3] (read-out: IC50) it was 137 nM; in assay [4], “Not Active”; against Adenosine receptor A3, “Not Active”. For the same compound, the Ki entry is “Not Active” in assay [1], 201 nM in assay [2] and 19 nM in assay [3].
As for `Cc1cccc(C)c1NC(=O)C1CCCCN1C` (centres undefined) [MEPIVACAINE], the IC50 entry (in assay [1]; against Substance-P receptor; in assay [2] (cho-k1); in assay [3] (cho-k1); in assay [4]; at Adenosine receptor A3) was “Not Active” each time. In addition, the Ki entry in assay [1] was “Not Active”.
Consider `CN(C)C(=N)NC(=N)N` [METFORMIN], for which the IC50 entry (in assay [1]; on Substance-P receptor; in assay [2] (cho-k1); in assay [3] (cho-k1); in assay [4]; on Adenosine receptor A3) was “Not Active” each time. In addition, the Ki entry in assay [1] is “Not Active”.
With `CC(C)(C)NCC(O)COc1cccc2c1CC(O)C(O)C2` (centres undefined) [NADOLOL], the IC50 result (in assay [1]; against Substance-P receptor; in assay [2] (cho-k1); in assay [3] (cho-k1); in assay [4]; against Adenosine receptor A3) was “Not Active” throughout. In addition, in assay [1], the Ki entry is recorded as “Not Active”.
For `C[C@]12CC[C@H]3[C@@H](CCC4=CC(=O)CC[C@@H]43)[C@@H]1CC[C@@H]2O` [NANDROLONE], the IC50 result (in assay [1]; against Substance-P receptor; in assay [2] (cho-k1); in assay [3] (cho-k1); in assay [4]; against Adenosine receptor A3) was “Not Active” each time. Besides, the Ki entry in assay [1] is “Not Active”.
Take `C[C@@H]1C/C=C/C=C/C=C/C=C/[C@H](O[C@@H]2O[C@H](C)[C@@H](O)[C@H](N)[C@@H]2O)C[C@@H]2O[C@](O)(C[C@@H](O)C[C@H]3O[C@@H]3/C=C/C(=O)O1)C[C@H](O)[C@H]2C(=O)O` [NATAMYCIN]: the IC50 result (in assay [1]; on Substance-P receptor; in assay [2] (cho-k1); in assay [3] (cho-k1); in assay [4]; against Adenosine receptor A3) was “Not Active” throughout. The Ki entry in assay [1] was “Not Active”.

As usually defined, the IC50 is the concentration that inhibits the measured activity by half. For orientation: Ki means a dissociation constant, usually derived from enzyme kinetics or from competition with a known ligand.
